The numbers were not newly measured in patent publication US6750247B2, “Sponge-derived terpenoids and methods of use” (Galileo Laboratories, Inc., priority 2001, dated 2004), which cites them from elsewhere.

Each structure is given as a SMILES string.

In the data set the target is T1, lipoxygenase (Homo sapiens, UniProt P09917).
T1 sequence (P09917 1-674): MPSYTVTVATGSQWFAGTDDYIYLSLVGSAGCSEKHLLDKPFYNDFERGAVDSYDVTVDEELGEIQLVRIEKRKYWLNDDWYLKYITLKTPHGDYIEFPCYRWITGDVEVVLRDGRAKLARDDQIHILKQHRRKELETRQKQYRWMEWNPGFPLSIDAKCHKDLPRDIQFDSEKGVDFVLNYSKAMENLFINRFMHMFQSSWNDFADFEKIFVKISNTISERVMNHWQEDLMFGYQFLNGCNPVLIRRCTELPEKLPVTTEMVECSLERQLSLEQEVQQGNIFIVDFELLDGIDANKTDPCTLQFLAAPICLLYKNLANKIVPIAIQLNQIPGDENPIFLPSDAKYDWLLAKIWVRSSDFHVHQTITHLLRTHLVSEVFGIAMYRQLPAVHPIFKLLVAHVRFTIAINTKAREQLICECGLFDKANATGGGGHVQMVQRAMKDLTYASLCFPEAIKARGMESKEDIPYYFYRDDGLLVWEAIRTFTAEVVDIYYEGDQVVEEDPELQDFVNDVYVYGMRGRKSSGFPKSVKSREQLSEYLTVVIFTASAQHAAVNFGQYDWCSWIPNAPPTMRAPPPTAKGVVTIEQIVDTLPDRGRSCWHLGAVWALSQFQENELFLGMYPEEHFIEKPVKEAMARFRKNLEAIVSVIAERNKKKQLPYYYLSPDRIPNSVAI
The following applies: Cabre et al., Inflamm. Res. 1996; cited from earlier work.

As for `CC1=C(CC/C(C)=C/CCC2=CC[C@H](C3=CC(=O)O[C@H]3O)O[C@H]2O)C(C)(C)CCC1` [manoalide], the lipoxygenase inhibitory properties entry is “no lipoxygenase inhibitory properties”.
